{"source": "ChEMBL document CHEMBL4385643", "about": "“Design of a brain-penetrant CDK4/6 inhibitor for glioblastoma” (Bioorg Med Chem Lett, 2019)", "key": {"[1]": {"target": "Vascular endothelial growth factor receptor 1 (Homo sapiens) (UniProt P17948)", "assay": "Inhibition of recombinant human GST-tagged FLT1 catalytic domain (781 to 1338 residues) expressed in baculovirus expression system at 0.1 uM using tyrosine-4 peptide as substrate incubated for 60 mins by Z'-LYTE assay relative to control"}, "[2]": {"target": "Tyrosine-protein kinase JAK1 (Homo sapiens) (UniProt P23458)", "assay": "Inhibition of recombinant human GST-tagged JAK1 catalytic domain (866 to 1154 residues) expressed in baculovirus expression system at 0.1 uM using tyrosine-6 peptide as substrate incubated for 60 mins by Z'-LYTE assay relative to control"}, "[3]": {"target": "Fibroblast growth factor receptor 3 (Homo sapiens) (UniProt P22607)", "assay": "Inhibition of recombinant human His-tagged FGFR3 catalytic domain (399 to 806 residues) expressed in baculovirus expression system at 0.1 uM using tyrosine-4 peptide as substrate incubated for 60 mins by Z'-LYTE assay relative to control"}, "[4]": {"target": "SRSF protein kinase 1 (Homo sapiens) (UniProt Q96SB4)", "sequence (Q96SB4 whole entry)": "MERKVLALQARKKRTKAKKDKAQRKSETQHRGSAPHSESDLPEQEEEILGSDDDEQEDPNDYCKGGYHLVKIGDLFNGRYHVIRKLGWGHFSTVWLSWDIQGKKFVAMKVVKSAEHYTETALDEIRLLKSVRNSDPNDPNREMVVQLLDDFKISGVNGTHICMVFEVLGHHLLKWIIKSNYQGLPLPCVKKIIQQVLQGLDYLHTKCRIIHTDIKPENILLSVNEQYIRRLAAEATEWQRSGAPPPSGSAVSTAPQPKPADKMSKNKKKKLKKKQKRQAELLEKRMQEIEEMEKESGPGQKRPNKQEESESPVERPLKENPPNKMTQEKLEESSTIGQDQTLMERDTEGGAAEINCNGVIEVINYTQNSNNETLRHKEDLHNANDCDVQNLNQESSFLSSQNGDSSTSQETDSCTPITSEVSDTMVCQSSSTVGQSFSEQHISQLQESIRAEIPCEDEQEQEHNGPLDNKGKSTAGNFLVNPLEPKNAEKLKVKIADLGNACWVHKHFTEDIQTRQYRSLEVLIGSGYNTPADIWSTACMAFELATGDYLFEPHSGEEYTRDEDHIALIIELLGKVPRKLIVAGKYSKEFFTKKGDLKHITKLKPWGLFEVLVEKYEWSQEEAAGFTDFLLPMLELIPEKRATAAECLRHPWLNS", "assay": "Inhibition of recombinant full length human His-tagged SRPK1 expressed in baculovirus expression system at 0.1 uM using serine/threonine-18 peptide as substrate incubated for 60 mins by Z'-LYTE assay relative to control"}, "[5]": {"target": "Cyclin-C/Cyclin-dependent kinase 19 (Homo sapiens) (UniProt Q9BWU1+P24863)", "assay": "Inhibition of tracer 236 binding to recombinant human GST/His-tagged CDK11/Cyclin C catalytic domain (CDK11: 1 to 502, Cyclin C: 1 to 283) expressed in insect cells expression system at 0.1 uM measured after 60 mins by Lanthascreen assay relative to control"}, "[6]": {"target": "Eukaryotic elongation factor 2 kinase (Homo sapiens) (UniProt O00418)", "assay": "Inhibition of recombinant full length human GST-tagged EEF2K expressed in Escherichia coli expression system at 0.1 uM using serine/threonine-24 peptide as substrate incubated for 60 mins by Z'-LYTE assay relative to control"}, "[7]": {"target": "Serine/threonine-protein kinase Nek9 (Homo sapiens) (UniProt Q8TD19)", "sequence (Q8TD19 whole entry, the tested form may be a part)": "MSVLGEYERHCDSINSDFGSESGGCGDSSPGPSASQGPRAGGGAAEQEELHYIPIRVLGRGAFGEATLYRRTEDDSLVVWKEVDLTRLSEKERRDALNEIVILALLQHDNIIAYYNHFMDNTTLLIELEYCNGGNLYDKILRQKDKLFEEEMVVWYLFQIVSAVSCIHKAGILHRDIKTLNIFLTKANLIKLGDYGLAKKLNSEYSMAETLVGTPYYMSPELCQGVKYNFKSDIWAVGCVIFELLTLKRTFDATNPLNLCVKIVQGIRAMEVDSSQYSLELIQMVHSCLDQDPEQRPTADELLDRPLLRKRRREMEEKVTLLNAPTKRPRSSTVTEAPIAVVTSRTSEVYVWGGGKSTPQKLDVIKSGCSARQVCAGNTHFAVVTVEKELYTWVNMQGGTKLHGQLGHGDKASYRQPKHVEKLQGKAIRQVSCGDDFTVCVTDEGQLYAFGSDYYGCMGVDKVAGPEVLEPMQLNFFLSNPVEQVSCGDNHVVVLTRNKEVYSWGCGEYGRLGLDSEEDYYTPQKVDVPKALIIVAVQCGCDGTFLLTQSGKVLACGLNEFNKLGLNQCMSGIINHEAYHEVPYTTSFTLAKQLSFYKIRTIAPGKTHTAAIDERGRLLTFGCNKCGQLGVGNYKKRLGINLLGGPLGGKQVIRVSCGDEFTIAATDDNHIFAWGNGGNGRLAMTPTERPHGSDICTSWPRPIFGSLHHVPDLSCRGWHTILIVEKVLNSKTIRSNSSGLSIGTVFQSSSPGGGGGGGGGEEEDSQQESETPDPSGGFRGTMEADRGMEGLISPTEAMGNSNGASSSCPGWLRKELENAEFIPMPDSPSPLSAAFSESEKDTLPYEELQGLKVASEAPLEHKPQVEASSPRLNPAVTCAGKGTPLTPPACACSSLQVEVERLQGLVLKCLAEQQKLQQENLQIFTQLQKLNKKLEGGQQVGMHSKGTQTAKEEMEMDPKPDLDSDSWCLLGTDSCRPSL", "assay": "Inhibition of recombinant human GST-tagged NEK9 catalytic domain (347 to 732 residues) expressed in baculovirus expression system at 0.1 uM using serine/threonine-7 peptide as substrate incubated for 60 mins by Z'-LYTE assay relative to control"}, "[8]": {"target": "MAP kinase-activated protein kinase 3 (Homo sapiens) (UniProt Q16644)", "assay": "Inhibition of recombinant full length human His-tagged MAPKAPK3 expressed in baculovirus expression system at 0.1 uM using serine/threonine-4 peptide as substrate incubated for 60 mins by Z'-LYTE assay relative to control"}, "[9]": {"target": "Proto-oncogene tyrosine-protein kinase ROS (Homo sapiens) (UniProt P08922)", "sequence (P08922 whole entry, the tested form may be a part)": "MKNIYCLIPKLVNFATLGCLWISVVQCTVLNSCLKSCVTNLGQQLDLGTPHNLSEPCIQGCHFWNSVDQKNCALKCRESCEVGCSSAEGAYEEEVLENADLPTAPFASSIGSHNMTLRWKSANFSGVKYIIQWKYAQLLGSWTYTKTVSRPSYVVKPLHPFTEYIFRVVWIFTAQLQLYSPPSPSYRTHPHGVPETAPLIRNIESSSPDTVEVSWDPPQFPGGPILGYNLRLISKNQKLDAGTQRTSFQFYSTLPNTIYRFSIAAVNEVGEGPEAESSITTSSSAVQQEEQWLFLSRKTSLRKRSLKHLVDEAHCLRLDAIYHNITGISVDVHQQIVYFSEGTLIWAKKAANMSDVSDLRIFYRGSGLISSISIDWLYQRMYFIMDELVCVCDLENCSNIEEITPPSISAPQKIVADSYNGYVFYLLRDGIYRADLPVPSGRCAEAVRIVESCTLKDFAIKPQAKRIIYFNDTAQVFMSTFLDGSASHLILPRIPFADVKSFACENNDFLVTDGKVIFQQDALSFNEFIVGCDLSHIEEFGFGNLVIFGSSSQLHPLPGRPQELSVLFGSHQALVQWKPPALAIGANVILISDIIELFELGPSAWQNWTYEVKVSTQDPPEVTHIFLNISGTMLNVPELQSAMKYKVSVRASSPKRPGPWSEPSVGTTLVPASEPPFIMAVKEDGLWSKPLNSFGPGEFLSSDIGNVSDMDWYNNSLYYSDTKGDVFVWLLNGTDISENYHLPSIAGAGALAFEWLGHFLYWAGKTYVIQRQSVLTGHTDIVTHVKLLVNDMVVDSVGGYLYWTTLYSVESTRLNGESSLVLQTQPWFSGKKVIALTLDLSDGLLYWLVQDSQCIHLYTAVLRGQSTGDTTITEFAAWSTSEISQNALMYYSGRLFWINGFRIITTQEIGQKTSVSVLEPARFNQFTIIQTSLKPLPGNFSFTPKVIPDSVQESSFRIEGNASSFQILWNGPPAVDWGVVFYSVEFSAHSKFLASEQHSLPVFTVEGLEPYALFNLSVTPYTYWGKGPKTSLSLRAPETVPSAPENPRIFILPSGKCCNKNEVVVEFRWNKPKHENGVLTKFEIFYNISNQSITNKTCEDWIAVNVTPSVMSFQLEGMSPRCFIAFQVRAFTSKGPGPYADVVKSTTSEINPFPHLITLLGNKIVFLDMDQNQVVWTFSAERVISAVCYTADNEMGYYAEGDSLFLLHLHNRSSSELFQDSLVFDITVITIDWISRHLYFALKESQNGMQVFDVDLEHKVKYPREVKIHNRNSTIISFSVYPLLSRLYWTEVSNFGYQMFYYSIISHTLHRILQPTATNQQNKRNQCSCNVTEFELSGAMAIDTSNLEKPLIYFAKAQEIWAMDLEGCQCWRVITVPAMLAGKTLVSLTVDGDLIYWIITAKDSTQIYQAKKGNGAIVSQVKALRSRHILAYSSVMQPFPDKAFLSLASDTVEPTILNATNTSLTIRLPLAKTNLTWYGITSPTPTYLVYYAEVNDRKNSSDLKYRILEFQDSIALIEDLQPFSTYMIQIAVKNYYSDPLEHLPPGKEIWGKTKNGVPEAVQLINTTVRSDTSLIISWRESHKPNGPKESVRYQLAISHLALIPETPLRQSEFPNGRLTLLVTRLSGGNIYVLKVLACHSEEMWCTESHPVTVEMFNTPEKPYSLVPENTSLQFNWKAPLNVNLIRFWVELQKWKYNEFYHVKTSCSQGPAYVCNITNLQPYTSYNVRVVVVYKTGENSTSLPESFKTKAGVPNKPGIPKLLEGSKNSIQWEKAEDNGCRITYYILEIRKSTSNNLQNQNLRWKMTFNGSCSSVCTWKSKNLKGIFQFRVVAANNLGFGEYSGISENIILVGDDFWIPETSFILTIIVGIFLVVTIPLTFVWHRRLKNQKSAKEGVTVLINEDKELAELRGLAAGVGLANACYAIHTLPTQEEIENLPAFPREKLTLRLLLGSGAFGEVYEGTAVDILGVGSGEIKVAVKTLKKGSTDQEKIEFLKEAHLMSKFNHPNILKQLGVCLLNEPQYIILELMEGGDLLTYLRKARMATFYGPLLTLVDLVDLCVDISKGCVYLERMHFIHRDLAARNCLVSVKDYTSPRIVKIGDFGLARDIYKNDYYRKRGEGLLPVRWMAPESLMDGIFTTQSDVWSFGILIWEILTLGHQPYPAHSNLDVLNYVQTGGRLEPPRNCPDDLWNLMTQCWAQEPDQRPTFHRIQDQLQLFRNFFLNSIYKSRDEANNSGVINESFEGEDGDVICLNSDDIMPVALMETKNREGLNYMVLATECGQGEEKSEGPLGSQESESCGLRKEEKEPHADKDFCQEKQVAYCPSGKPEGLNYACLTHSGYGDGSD", "assay": "Inhibition of recombinant human GST-tagged ROS1 catalytic domain (1883 to 2347 residues) expressed in baculovirus expression system at 0.1 uM using tyrosine-2 peptide as substrate incubated for 60 mins by Z'-LYTE assay relative to control"}, "[10]": {"target": "TGF-beta receptor type-1 (Homo sapiens) (UniProt P36897)", "sequence (P36897 whole entry, the tested form may be a part)": "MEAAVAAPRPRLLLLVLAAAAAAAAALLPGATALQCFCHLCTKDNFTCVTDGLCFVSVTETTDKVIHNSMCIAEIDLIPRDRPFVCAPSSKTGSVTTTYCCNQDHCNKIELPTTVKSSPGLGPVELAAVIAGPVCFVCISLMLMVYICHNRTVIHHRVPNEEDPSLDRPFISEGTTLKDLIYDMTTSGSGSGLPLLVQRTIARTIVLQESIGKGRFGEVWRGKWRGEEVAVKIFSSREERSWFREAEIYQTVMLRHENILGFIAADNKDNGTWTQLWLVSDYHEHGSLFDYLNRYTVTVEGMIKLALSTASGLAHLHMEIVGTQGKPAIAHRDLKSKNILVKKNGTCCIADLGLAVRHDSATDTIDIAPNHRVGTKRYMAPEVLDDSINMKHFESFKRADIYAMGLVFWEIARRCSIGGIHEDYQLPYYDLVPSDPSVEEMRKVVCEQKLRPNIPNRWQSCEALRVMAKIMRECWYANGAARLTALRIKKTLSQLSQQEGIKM", "assay": "Inhibition of tracer 178 binding to recombinant human GST-tagged TGFBR1 catalytic domain (200 to 503 residues) expressed in baculovirus expression system at 0.1 uM measured after 60 mins by Lanthascreen assay"}, "[11]": {"target": "Mast/stem cell growth factor receptor Kit (Homo sapiens) (UniProt P10721)", "assay": "Inhibition of recombinant human His-tagged KIT (544 to 976 residues) expressed in baculovirus expression system at 0.1 uM using tyrosine-6 peptide as substrate incubated for 60 mins by Z'-LYTE assay relative to control"}, "[12]": {"target": "Protein kinase C beta type (Homo sapiens) (UniProt P05771)", "assay": "Inhibition of recombinant full length human GST-tagged PKCbeta1 expressed in insect expression system at 0.1 uM using serine/threonine-7 peptide as substrate incubated for 60 mins by Z'-LYTE assay relative to control"}, "[13]": {"target": "Vascular endothelial growth factor receptor 3 (Homo sapiens) (UniProt P35916)", "assay": "Inhibition of recombinant human GST-tagged FLT4 catalytic domain (800 to 1297 residues) expressed in baculovirus expression system at 0.1 uM using tyrosine-4 peptide as substrate incubated for 60 mins by Z'-LYTE assay relative to control"}, "[14]": {"target": "Cyclin-dependent kinase 4/cyclin D1 (Homo sapiens) (UniProt P11802+P24385)", "assay": "Inhibition of recombinant full length human GST-tagged CDK4/Cyclin D1 expressed in baculovirus expression system at 0.1 uM using Rb peptide as substrate incubated for 60 mins by Adapta assay relative to control"}, "[15]": {"target": "MAP kinase-interacting serine/threonine-protein kinase 1 (Homo sapiens) (UniProt Q9BUB5)", "sequence (Q9BUB5 whole entry, looked up)": "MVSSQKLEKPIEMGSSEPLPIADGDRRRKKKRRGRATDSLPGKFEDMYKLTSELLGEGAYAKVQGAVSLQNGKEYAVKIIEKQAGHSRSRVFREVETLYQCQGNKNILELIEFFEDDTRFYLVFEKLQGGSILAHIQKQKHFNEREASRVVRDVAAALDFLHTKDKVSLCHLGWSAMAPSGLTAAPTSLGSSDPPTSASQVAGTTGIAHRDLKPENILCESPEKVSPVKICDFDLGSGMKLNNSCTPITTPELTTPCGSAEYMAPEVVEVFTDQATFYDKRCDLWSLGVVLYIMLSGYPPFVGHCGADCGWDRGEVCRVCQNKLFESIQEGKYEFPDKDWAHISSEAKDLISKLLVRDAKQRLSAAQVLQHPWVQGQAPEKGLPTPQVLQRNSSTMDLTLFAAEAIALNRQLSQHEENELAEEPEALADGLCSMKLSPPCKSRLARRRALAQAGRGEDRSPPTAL", "assay": "Inhibition of recombinant full length human GST-tagged MKNK1 expressed in insect expression system at 0.1 uM using serine/threonine-7 peptide as substrate incubated for 60 mins by Z'-LYTE assay relative to control"}, "[16]": {"target": "Serine/threonine-protein kinase N1 (Homo sapiens) (UniProt Q16512)", "assay": "Inhibition of recombinant full length human GST-tagged PRK1 expressed in baculovirus expression system at 0.1 uM using serine/threonine-7 peptide as substrate incubated for 60 mins by Z'-LYTE assay relative to control"}, "[17]": {"target": "Mitogen-activated protein kinase 13 (Homo sapiens) (UniProt O15264)", "assay": "Inhibition of recombinant full length human His-tagged p38delta expressed in baculovirus expression system at 0.1 uM using serine/threonine-3 peptide as substrate incubated for 60 mins by Z'-LYTE assay relative to control"}, "[18]": {"target": "Serine/threonine-protein kinase BRSK1 (Homo sapiens) (UniProt Q8TDC3)", "assay": "Inhibition of recombinant full length human GST-tagged BRSK1 expressed in baculovirus expression system at 0.1 uM using serine/threonine-21 peptide as substrate incubated for 60 mins by Z'-LYTE assay relative to control"}, "[19]": {"target": "Receptor-type tyrosine-protein kinase FLT3 (Homo sapiens) (UniProt P36888)", "assay": "Inhibition of recombinant human His-tagged FLT3 catalytic domain (564 to 958 residues) expressed in baculovirus expression system at 0.1 uM using tyrosine-2 peptide as substrate incubated for 60 mins by Z'-LYTE assay relative to control"}, "[20]": {"target": "Dual specificity tyrosine-phosphorylation-regulated kinase 1A (Homo sapiens) (UniProt Q13627)", "assay": "Inhibition of recombinant full length human GST-tagged DYRK1A expressed in baculovirus expression system at 0.1 uM using serine/threonine-18 peptide as substrate incubated for 60 mins by Z'-LYTE assay relative to control"}, "[21]": {"target": "G protein-coupled receptor kinase 6 (Homo sapiens) (UniProt P43250)", "assay": "Inhibition of recombinant full length human GST-tagged GRK6 expressed in baculovirus expression system at 0.1 uM using serine/threonine-16 peptide as substrate incubated for 60 mins by Z'-LYTE assay relative to control"}, "[22]": {"target": "Fibroblast growth factor receptor 1 (Homo sapiens) (UniProt P11362)", "assay": "Inhibition of recombinant human His-tagged FGFR1 catalytic domain (308 to 731 residues) expressed in baculovirus expression system at 0.1 uM using tyrosine-4 peptide as substrate incubated for 60 mins by Z'-LYTE assay relative to control"}}}
{"smiles": "CCN1CC2(C1)CN(c1ccc(Nc3ncc(F)c(-c4cnn5c4[C@H](C)CCCC5)n3)nc1)C2", "values": [{"measurement": "inhibition", "setting": "[1]", "value": 2.5, "unit": "%"}, {"measurement": "inhibition", "setting": "[2]", "value": 5, "unit": "%"}, {"measurement": "inhibition", "setting": "[3]", "value": 1.5, "unit": "%"}, {"measurement": "inhibition", "setting": "[4]", "value": 4.5, "unit": "%"}, {"measurement": "inhibition", "setting": "[5]", "value": 81, "unit": "%"}, {"measurement": "inhibition", "setting": "[6]", "value": 5.5, "unit": "%"}, {"measurement": "inhibition", "setting": "[7]", "value": -1.5, "unit": "%"}, {"measurement": "inhibition", "setting": "[8]", "value": 1, "unit": "%"}, {"measurement": "inhibition", "setting": "[9]", "value": 57.5, "unit": "%"}, {"measurement": "inhibition", "setting": "[10]", "value": 16, "unit": "%"}, {"measurement": "inhibition", "setting": "[11]", "value": -0.5, "unit": "%"}, {"measurement": "inhibition", "setting": "[12]", "value": 4.5, "unit": "%"}, {"measurement": "inhibition", "setting": "[13]", "value": 19, "unit": "%"}, {"measurement": "inhibition", "setting": "[14]", "value": 94, "unit": "%"}, {"measurement": "inhibition", "setting": "[15]", "value": 18, "unit": "%"}, {"measurement": "inhibition", "setting": "[16]", "value": 8.5, "unit": "%"}, {"measurement": "inhibition", "setting": "[17]", "value": 3.5, "unit": "%"}, {"measurement": "inhibition", "setting": "[18]", "value": 44, "unit": "%"}, {"measurement": "inhibition", "setting": "[19]", "value": 59, "unit": "%"}, {"measurement": "inhibition", "setting": "[20]", "value": 26.5, "unit": "%"}, {"measurement": "inhibition", "setting": "[21]", "value": 2.5, "unit": "%"}, {"measurement": "inhibition", "setting": "[22]", "value": -4, "unit": "%"}]}
{"smiles": "CCN1CCN(Cc2ccc(Nc3ncc(F)c(-c4cc(F)c5nc(C)n(C(C)C)c5c4)n3)nc2)CC1", "note": "[ABEMACICLIB]", "values": [{"measurement": "inhibition", "setting": "[1]", "value": 3, "unit": "%"}, {"measurement": "inhibition", "setting": "[2]", "value": 2, "unit": "%"}, {"measurement": "inhibition", "setting": "[3]", "value": 0, "unit": "%"}, {"measurement": "inhibition", "setting": "[4]", "value": 6, "unit": "%"}, {"measurement": "inhibition", "setting": "[5]", "value": 19, "unit": "%"}, {"measurement": "inhibition", "setting": "[6]", "value": 8, "unit": "%"}, {"measurement": "inhibition", "setting": "[7]", "value": 2, "unit": "%"}, {"measurement": "inhibition", "setting": "[8]", "value": 9, "unit": "%"}, {"measurement": "inhibition", "setting": "[9]", "value": 59.5, "unit": "%"}, {"measurement": "inhibition", "setting": "[10]", "value": 10.9, "unit": "%"}, {"measurement": "inhibition", "setting": "[11]", "value": 0, "unit": "%"}, {"measurement": "inhibition", "setting": "[12]", "value": 38, "unit": "%"}, {"measurement": "inhibition", "setting": "[13]", "value": 4, "unit": "%"}, {"measurement": "inhibition", "setting": "[14]", "value": 87, "unit": "%"}, {"measurement": "inhibition", "setting": "[15]", "value": 27, "unit": "%"}, {"measurement": "inhibition", "setting": "[16]", "value": 7, "unit": "%"}, {"measurement": "inhibition", "setting": "[17]", "value": 7, "unit": "%"}, {"measurement": "inhibition", "setting": "[18]", "value": 18, "unit": "%"}, {"measurement": "inhibition", "setting": "[19]", "value": 35.5, "unit": "%"}, {"measurement": "inhibition", "setting": "[20]", "value": 92.5, "unit": "%"}, {"measurement": "inhibition", "setting": "[21]", "value": 6, "unit": "%"}, {"measurement": "inhibition", "setting": "[22]", "value": -0.4, "unit": "%"}]}
